The subject of the first test is Echinochloa crus-galli (ECHCG). Kind of test: Post-emergence herbicidal activity (B2). To be noted: Test B2a, 1000 g/ha, evaluated after 13 days, 5=total damage to plant, 0=no damage to plant. The format is in vivo. The procedure, abridged:
(§1)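 Scores run from 0 (no damage) to 5 (total plant damage), assessed 13 days after spraying. Seedlings had grown 8 days under controlled glasshouse conditions before treatment with an aqueous spray from an acetone/water (50:50) formulation with 0.5% Tween 20.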
`CCCCCCNc1ccc(-c2cncc(F)c2)nc1C(F)(F)F` [Compound A42] showed an ECHCG damage score of 5.

In the case of `Fc1cncc(-c2ccc(NCc3cnco3)c(C(F)(F)F)n2)c1` [Compound A60], the ECHCG damage score is recorded as 5.

As to `Fc1cncc(-c2ccc(N3CCCC3C(F)(F)F)c(C(F)(F)F)n2)c1` (stereo not drawn) [Compound A64], the ECHCG damage score was determined as 2.

In the case of `Nc1ccc(-c2cncc(F)c2)nc1-c1ccccc1` [Compound A50], the ECHCG damage score is on record as 1.

The molecule `CC(C)CCNc1ccc(-c2cncc(F)c2)nc1C(F)(F)F` [Compound A53] registered an ECHCG damage score of 5.

As for `CCCNc1ccc(-c2cncc(F)c2)nc1C(F)(F)F` [Compound A47], the ECHCG damage score is given as 4.

The next test deals with Lolium perenne (LOLPE). The test is described as follows: Post-emergence herbicidal activity (B2). In kind it is in vivo. The settings on record: Test B2a, 1000 g/ha, evaluated after 13 days, 5=total damage to plant, 0=no damage to plant. The essentials: as §1
As for `CCCCCCNc1ccc(-c2cncc(F)c2)nc1C(F)(F)F` [Compound A42], the LOLPE damage score stood at 2.

Consider `Fc1cncc(-c2ccc(NCc3cnco3)c(C(F)(F)F)n2)c1` [Compound A60], for which the LOLPE damage score stood at 4.

Molecule `Fc1cncc(-c2ccc(N3CCCC3C(F)(F)F)c(C(F)(F)F)n2)c1` (stereo not drawn) [Compound A64] gave an LOLPE damage score of 0.

With `Nc1ccc(-c2cncc(F)c2)nc1-c1ccccc1` [Compound A50], the LOLPE damage score was determined as 0.

`CC(C)CCNc1ccc(-c2cncc(F)c2)nc1C(F)(F)F` [Compound A53] registered an LOLPE damage score of 3.

In turn, `CCCNc1ccc(-c2cncc(F)c2)nc1C(F)(F)F` [Compound A47] gave an LOLPE damage score of 2.

The subject of the next test is Setaria faberi (SETFA). Kind of test: Post-emergence herbicidal activity (B2). In kind it is in vivo. To be noted: Test B2a, 1000 g/ha, evaluated after 13 days, 5=total damage to plant, 0=no damage to plant. The procedure, abridged:
as §1
For the molecule `CCCCCCNc1ccc(-c2cncc(F)c2)nc1C(F)(F)F` [Compound A42], the SETFA damage score is 5.

The molecule `Fc1cncc(-c2ccc(NCc3cnco3)c(C(F)(F)F)n2)c1` [Compound A60] came in with an SETFA damage score of 5.

On to `Fc1cncc(-c2ccc(N3CCCC3C(F)(F)F)c(C(F)(F)F)n2)c1` (stereo not drawn) [Compound A64], for which the SETFA damage score is 4.

Molecule `Nc1ccc(-c2cncc(F)c2)nc1-c1ccccc1` [Compound A50] came in with an SETFA damage score of 2.

For the molecule `CC(C)CCNc1ccc(-c2cncc(F)c2)nc1C(F)(F)F` [Compound A53], the SETFA damage score was found to be 5.

In turn, `CCCNc1ccc(-c2cncc(F)c2)nc1C(F)(F)F` [Compound A47] displayed an SETFA damage score of 5.

The next test deals with Triticum aestivium (TRZAW). The test is described as follows: Post-emergence herbicidal activity (B2). The format is in vivo. The settings on record: Test B2a, 1000 g/ha, evaluated after 13 days, 5=total damage to plant, 0=no damage to plant. The procedure, abridged: as §1
Take `CCCCCCNc1ccc(-c2cncc(F)c2)nc1C(F)(F)F` [Compound A42]: the TRAZW damage score is 1.

`Fc1cncc(-c2ccc(NCc3cnco3)c(C(F)(F)F)n2)c1` [Compound A60] registered a TRAZW damage score of 2.

Turning to `Fc1cncc(-c2ccc(N3CCCC3C(F)(F)F)c(C(F)(F)F)n2)c1` (stereo not drawn) [Compound A64], the TRAZW damage score was found to be 0.

As to `Nc1ccc(-c2cncc(F)c2)nc1-c1ccccc1` [Compound A50], the TRAZW damage score worked out at 0.

`CC(C)CCNc1ccc(-c2cncc(F)c2)nc1C(F)(F)F` [Compound A53] had a TRAZW damage score of 1.

The molecule `CCCNc1ccc(-c2cncc(F)c2)nc1C(F)(F)F` [Compound A47] showed a TRAZW damage score of 2.

A further test relates to Avena fatua (AVEFA). The test is described as follows: Post-emergence herbicidal activity (B2). In kind it is in vivo. The settings on record: Test B2a, 1000 g/ha, evaluated after 13 days, 5=total damage to plant, 0=no damage to plant. The procedure, abridged: as §1
`CCCCCCNc1ccc(-c2cncc(F)c2)nc1C(F)(F)F` [Compound A42]: the AVEFA damage score is recorded as 3.

For `Fc1cncc(-c2ccc(NCc3cnco3)c(C(F)(F)F)n2)c1` [Compound A60], the AVEFA damage score stood at 3.

`Fc1cncc(-c2ccc(N3CCCC3C(F)(F)F)c(C(F)(F)F)n2)c1` (stereo not drawn) [Compound A64] returned an AVEFA damage score of 1.

On to `Nc1ccc(-c2cncc(F)c2)nc1-c1ccccc1` [Compound A50], for which the AVEFA damage score was found to be 0.

`CC(C)CCNc1ccc(-c2cncc(F)c2)nc1C(F)(F)F` [Compound A53] showed an AVEFA damage score of 3.

In turn, `CCCNc1ccc(-c2cncc(F)c2)nc1C(F)(F)F` [Compound A47] returned an AVEFA damage score of 2.

The next test concerns Alopecurus myosuroides (ALOMY). The test is described as follows: Post-emergence herbicidal activity (B2). The settings on record: Test B2a, 1000 g/ha, evaluated after 13 days, 5=total damage to plant, 0=no damage to plant. The format is in vivo. The essentials:
as §1
Take `CCCCCCNc1ccc(-c2cncc(F)c2)nc1C(F)(F)F` [Compound A42]: the ALOMY damage score is given as 1.

As to `Fc1cncc(-c2ccc(NCc3cnco3)c(C(F)(F)F)n2)c1` [Compound A60], the ALOMY damage score is 1.

`Fc1cncc(-c2ccc(N3CCCC3C(F)(F)F)c(C(F)(F)F)n2)c1` (stereo not drawn) [Compound A64]: the ALOMY damage score is on record as 0.

Molecule `Nc1ccc(-c2cncc(F)c2)nc1-c1ccccc1` [Compound A50] had an ALOMY damage score of 0.

In turn, `CC(C)CCNc1ccc(-c2cncc(F)c2)nc1C(F)(F)F` [Compound A53] showed an ALOMY damage score of 1.

`CCCNc1ccc(-c2cncc(F)c2)nc1C(F)(F)F` [Compound A47] registered an ALOMY damage score of 0.

Another test relates to Echinochloa crus-galli (ECHCG). The test is described as follows: Pre-emergence herbicidal activity (B1). In kind it is in vivo. To be noted: Test 1a, 1000 g/ha, evaluated after 13 days, 5=total damage to plant, 0=no damage to plant. The essentials:
(§2)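 After one day of cultivation, soil pots were treated pre-emergence by spray with active ingredient in acetone/water (50:50) and 0.5% Tween 20. Evaluation at 13 days used a 0–5 scale, where 5 meant total plant damage.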
Molecule `CCCCCCNc1ccc(-c2cncc(F)c2)nc1C(F)(F)F` [Compound A42] yielded an ECHCG damage score of 4.

`Fc1cncc(-c2ccc(NCc3cnco3)c(C(F)(F)F)n2)c1` [Compound A60] had an ECHCG damage score of 5.

The molecule `Fc1cncc(-c2ccc(N3CCCC3C(F)(F)F)c(C(F)(F)F)n2)c1` (stereo not drawn) [Compound A64] came in with an ECHCG damage score of 1.

With `Nc1ccc(-c2cncc(F)c2)nc1-c1ccccc1` [Compound A50], the ECHCG damage score is listed as 1.

Consider `CC(C)CCNc1ccc(-c2cncc(F)c2)nc1C(F)(F)F` [Compound A53], for which the ECHCG damage score was found to be 4.

Molecule `CCCNc1ccc(-c2cncc(F)c2)nc1C(F)(F)F` [Compound A47] returned an ECHCG damage score of 3.

The test system of the next test is Lolium perenne (LOLPE). Kind of test: Pre-emergence herbicidal activity (B1). The format is in vivo. To be noted: Test 1a, 1000 g/ha, evaluated after 13 days, 5=total damage to plant, 0=no damage to plant. The procedure, abridged:
as §2
`CCCCCCNc1ccc(-c2cncc(F)c2)nc1C(F)(F)F` [Compound A42] returned an LOLPE damage score of 1.

Molecule `Fc1cncc(-c2ccc(NCc3cnco3)c(C(F)(F)F)n2)c1` [Compound A60] came in with an LOLPE damage score of 1.

As for `Fc1cncc(-c2ccc(N3CCCC3C(F)(F)F)c(C(F)(F)F)n2)c1` (stereo not drawn) [Compound A64], the LOLPE damage score is 0.

Molecule `Nc1ccc(-c2cncc(F)c2)nc1-c1ccccc1` [Compound A50] gave an LOLPE damage score of 0.

Molecule `CC(C)CCNc1ccc(-c2cncc(F)c2)nc1C(F)(F)F` [Compound A53] registered an LOLPE damage score of 2.

In turn, `CCCNc1ccc(-c2cncc(F)c2)nc1C(F)(F)F` [Compound A47] showed an LOLPE damage score of 1.

In the next test the test system is Setaria faberi (SETFA). The test is described as follows: Pre-emergence herbicidal activity (B1). To be noted: Test 1a, 1000 g/ha, evaluated after 13 days, 5=total damage to plant, 0=no damage to plant. The format is in vivo. The essentials:
as §2
Turning to `CCCCCCNc1ccc(-c2cncc(F)c2)nc1C(F)(F)F` [Compound A42], the SETFA damage score came out at 5.

Regarding `Fc1cncc(-c2ccc(NCc3cnco3)c(C(F)(F)F)n2)c1` [Compound A60], the SETFA damage score came to 5.

The molecule `Fc1cncc(-c2ccc(N3CCCC3C(F)(F)F)c(C(F)(F)F)n2)c1` (stereo not drawn) [Compound A64] showed an SETFA damage score of 1.

For the molecule `Nc1ccc(-c2cncc(F)c2)nc1-c1ccccc1` [Compound A50], the SETFA damage score is recorded as 1.

Molecule `CC(C)CCNc1ccc(-c2cncc(F)c2)nc1C(F)(F)F` [Compound A53] gave an SETFA damage score of 5.

`CCCNc1ccc(-c2cncc(F)c2)nc1C(F)(F)F` [Compound A47] yielded an SETFA damage score of 4.

In the next test the test system is Triticum aestivium (TRZAW). Kind of test: Pre-emergence herbicidal activity (B1). In kind it is in vivo. To be noted: Test 1a, 1000 g/ha, evaluated after 13 days, 5=total damage to plant, 0=no damage to plant. The procedure, abridged: as §2
For `CCCCCCNc1ccc(-c2cncc(F)c2)nc1C(F)(F)F` [Compound A42], the TRAZW damage score turned out to be 0.

Molecule `Fc1cncc(-c2ccc(NCc3cnco3)c(C(F)(F)F)n2)c1` [Compound A60] came in with a TRAZW damage score of 0.

Consider `Fc1cncc(-c2ccc(N3CCCC3C(F)(F)F)c(C(F)(F)F)n2)c1` (stereo not drawn) [Compound A64], for which the TRAZW damage score is on record as 0.

For the molecule `Nc1ccc(-c2cncc(F)c2)nc1-c1ccccc1` [Compound A50], the TRAZW damage score is listed as 0.

Molecule `CC(C)CCNc1ccc(-c2cncc(F)c2)nc1C(F)(F)F` [Compound A53] came in with a TRAZW damage score of 1.

`CCCNc1ccc(-c2cncc(F)c2)nc1C(F)(F)F` [Compound A47] returned a TRAZW damage score of 0.

The next test has as its system Avena fatua (AVEFA). The test is described as follows: Pre-emergence herbicidal activity (B1). In kind it is in vivo. To be noted: Test 1a, 1000 g/ha, evaluated after 13 days, 5=total damage to plant, 0=no damage to plant. The essentials:
as §2
`CCCCCCNc1ccc(-c2cncc(F)c2)nc1C(F)(F)F` [Compound A42] had an AVEFA damage score of 2.

As for `Fc1cncc(-c2ccc(NCc3cnco3)c(C(F)(F)F)n2)c1` [Compound A60], the AVEFA damage score is given as 3.

Molecule `Fc1cncc(-c2ccc(N3CCCC3C(F)(F)F)c(C(F)(F)F)n2)c1` (stereo not drawn) [Compound A64] came in with an AVEFA damage score of 0.

`Nc1ccc(-c2cncc(F)c2)nc1-c1ccccc1` [Compound A50] showed an AVEFA damage score of 0.

As to `CC(C)CCNc1ccc(-c2cncc(F)c2)nc1C(F)(F)F` [Compound A53], the AVEFA damage score was 1.

The molecule `CCCNc1ccc(-c2cncc(F)c2)nc1C(F)(F)F` [Compound A47] displayed an AVEFA damage score of 1.

The next test deals with Alopecurus myosuroides (ALOMY). The test is described as follows: Pre-emergence herbicidal activity (B1). In kind it is in vivo. To be noted: Test 1a, 1000 g/ha, evaluated after 13 days, 5=total damage to plant, 0=no damage to plant. The procedure, abridged: as §2
Molecule `CCCCCCNc1ccc(-c2cncc(F)c2)nc1C(F)(F)F` [Compound A42] yielded an ALOMY damage score of 0.

`Fc1cncc(-c2ccc(NCc3cnco3)c(C(F)(F)F)n2)c1` [Compound A60] yielded an ALOMY damage score of 0.

With `Fc1cncc(-c2ccc(N3CCCC3C(F)(F)F)c(C(F)(F)F)n2)c1` (stereo not drawn) [Compound A64], the ALOMY damage score stood at 0.

Turning to `Nc1ccc(-c2cncc(F)c2)nc1-c1ccccc1` [Compound A50], the ALOMY damage score stood at 0.

For `CC(C)CCNc1ccc(-c2cncc(F)c2)nc1C(F)(F)F` [Compound A53], the ALOMY damage score stood at 1.

For the molecule `CCCNc1ccc(-c2cncc(F)c2)nc1C(F)(F)F` [Compound A47], the ALOMY damage score stood at 0.

The values above are taken from patent US10986838B2, “Herbicides” (SYNGENTA PARTICIPATIONS AG, priority 2016, dated 2021).
